# Results as given in patent publication US20080051451A1, “Autoimmune conditions and NADPH oxidase defects” (priority 2006, published 2008).
# Entries after “also recorded” stand apart in the source; their conditions may differ.
# Key:
# [1] = test system: DA.Ncf1^DA rats; assay: Non oil collagen induced arthritis (NOCIA); type: in vivo, Rat (Rattus norvegicus)
# Protocol: Non oil collagen induced arthritis (NOCIA) was induced by emulsifying rat CII (300 μg) in a mixture of LPS (50 μg; Sigma Aldrich), CPG (5′-TCCATGACGTTCCTGACGTT-3′; SEQ ID NO:1) (45 μg; MWG-Biotech AG, Ebersberg, Germany) and alum (6 mg; Sigma Aldrich) and injected s.c. in a total volume of 300 μl.
# Preventive effect on arthritis of phytol injection (200 μl s.c.) five days prior to induction of NOCIA in DA.Ncf1^DA rats, (control (Δ) and compound 1 (phytol) (▴)).
# Delayed type hypersensitivity (DTH) response is abrogated after compound 1 (phytol) injection (FIG. 8B). Day 67 after NOCIA immunization the immune system was challenged by an injection of CII in the ear. Following increase in ear volume was measured and compared to control ear (control n=7 and compound 1 (phytol) n=8).
# [2] = test system: Rats heterozygous for the functional Ncf1 (Ncf1^E3) allele with Pia3 locus; assay: Pristane induced arthritis (PIA) in rats with a functional oxidative burst; conditions: injected i.p. (200 μl) at the estimated peak of disease
# Protocol: (§1) Disease was induced in all rats at the age of 6-12 weeks. Arthritis development was monitored with a macroscopic scoring system of the four limbs ranging from 0 to 15 (1 point for each swollen or red toe, 1 point for midfoot digit or knuckle, 5 points for a swollen ankle). The scores of the four paws were added yielding a maximum total score of 60 for each rat.
# (§2) Therapeutic treatments were administered s.c. or intra peritoneal (i.p.; 200 μl) after onset of disease in the acute or chronic phase (FIG. 6).
# [3] = test system: NADPH oxidase; assay: Oxidative burst response to PMA in spleen granulocytes after s.c. injection in vivo; parameters: species or system Rat (Rattus norvegicus); conditions: spleen granulocytes 5 days after s.c. injection (200 μl) in DA.Ncf1^DA rats, PMA stimulation, compared to naive DA.Ncf1^DA and DA.Ncf1^E3
# Protocol: The term DA.Ncf1^DA rats designates DA rats carrying the Ncf1 DA allele with impaired NADPH oxidase capacity and the term DA.Ncf1^E3 rats designates DA rats carrying the Ncf1^E3 allele with functional NADPH oxidase capacity (Olofsson & Holmdahl (2003) Scand J Immunol 58:155-164).
# Oxidative burst response to PMA stimulation in vitro in spleen granulocytes taken 5 days after s.c. phytol injection in DA.Ncf1^DA rats (200 μl) compared to naive DA.Ncf1^DA and DA.Ncf1^E3 (n=5) (FIG. 3).
# [4] = test system: DA.Ncf1^DA rats; assay: Pristane induced arthritis (PIA) in DA.Ncf1^DA rats; type: in vivo, Rat (Rattus norvegicus); conditions: for severity of PIA, therapeutic effect: 100 μl subcutaneous injections in the neck at day 8 and 10 after arthritis induction; for severity of PIA, oral administration in food 500 mg/kg/day: mixed in the food for continuous uptake; for severity of PIA, oral administration in food 1% daily: mixed in the food for daily uptake
# Protocol: Treatments with compound 1 (phytol) or compound 5 (phytyl acetate) were administered to DA.Ncf1^DA rats as 100 μl subcutaneous injections in the neck at day 8 and 10 after arthritis induction (untreated control (◯), compound 1 (phytol) (♦) and compound 5 (phytyl acetate) (▴)) (FIG. 9).
# Treatments with compound 2 (farnesol) or compound 4 (farnesylacetate) were administered to DA.Ncf1^DA rats as 100 μl subcutaneous injections in the neck at day 8 and 10 after arthritis induction, (untreated control (◯), compound 2 (farnesol) (▪) and compound 4 (farnesylacetate) (▴)) (FIG. 11).
# Treatments with compound 1 (phytol), compound 6 (di-hydro-phytol, compound 5 (phytyl acetate), or compound 7 (di-hydro-phytyl acetate were administered to DA.Ncf1^DA rats as 100 μl subcutaneous injections in the neck at day 8 and 10 after arthritis induction, (untreated control (◯), compound 1 (phytol) (♦), compound 6 (di-hydro-phytol (▪), compound 5 (phytyl acetate) (▴) or compound 7 (di-hydro-phytyl acetate (●)) (FIG. 12).
# Treatments of DA.Ncf1^DA rats with compound 1 (phytol) mixed in the food for continuous uptake compared with Omega3 fatty acids, (untreated control (◯), Omega3 fatty acid (□), phytol 1% daily (♦), phytol 1% every 2'nd day (▴), or phytol 1% initiated day 7 after arthritis induction (▪)) (FIG. 13).
# Treatments of DA.Ncf1^DA rats with compound 5 (phytyl acetate) mixed in the food for daily uptake, (untreated control (◯), compound 1 (phytol) 1% daily (♦), or compound 5 (phytyl acetate) 1% daily (▴)) (FIG. 14).
# Treatments with compound 1 (phytol) at 1.6 or 2.3 g/kg/day administered to DA.Ncf1^DA rats by oral gavage given by dosing every second day with compound 1 (phytol) […] (♦), compound 1 (phytol) […] (▴) or untreated control (◯).
# Treatments of DA.Ncf1^DA rats with compound 1 (phytol) or compound 9 (isophytol) mixed in the food for continuous uptake compared with fenofibrate, (compound 1 (phytol) 500 mg/kg/day (♦), compound 9 (isophytol) 500 mg/kg/day (▴), or fenofibrate 100 mg/kg/day (□). Untreated control (◯).) (see FIG. 17).
# [5] = test system: Lewis.IF rat; assay: Pristane induced arthritis (PIA) in Lewis.IF rats; conditions: 200 μl s.c. 5 days before induction of PIA
# Protocol: as §1, §2
# [6] = test system: DA.Ncf1^DA rats; assay: Collagen induced arthritis (CIA) with oil adjuvant; type: in vivo, Rat (Rattus norvegicus)
# Protocol: Collagen induced arthritis (CIA) was induced by an s.c. injection of 100 μl of rat collagen type II (CII; 100 μg/rat-150 μg/rat), emulsified in incomplete Freund's adjuvant (IFA; Sigma Aldrich) (FIG. 7).
# Effect of s.c. administration of phytol (200 μl) 5 days.
# At day 27 after immunization, sera were taken and analyzed for anti-CII IgG levels (n=7). Titers are relative to pooled positive sera (units).
# [7] = test system: HL-60 cells; assay: Oxidative burst assay of granulocytes in vitro (isoluminol, extra-cellular ROS); conditions: HL-60 differentiated to granulocytes, 50 minutes, 37° C.
# Protocol: The human myeloma cell line HL-60 (ATCC, CCI-240) was cultured in D-MEM (Gibco, Paisley, UK) complemented with 10% fetal calf serum and Penicillin-Streptomycin. […] Before assaying the cells were washed and resuspended in PBS to a concentration of 10^7 cells/ml.
# Briefly, 5 μl of resuspended oils were added into 96-well plates containing 5×10^5 cells/well in a total volume of 200 μl PBS/well (final concentration isoluminol 50 μg/ml; Sigma Aldrich) and horse radish peroxidase (type II 2,5 U/ml; Sigma Aldrich). Samples were gently mixed and the data collection was initiated immediately. Extra-cellular ROS production was followed at 37° C. as produced luminescence signal (FluoStar Optima, BMG Labtechnologies, Offenburg, Germany) and presented as maximal relative signal during a measurement period of 50 minutes.
# The cells were differentiated to granulocytes by culture in presence of 1,25% dimethylsulfoxide (DMSO; Sigma Aldrich Inc., Milwaukee, Wis.) for six days.
# [8] = Arthritogenicity / arthritis effect (general statement); type: in vivo; conditions: general statement in Example 3
# [9] = test system: DA.Ncf1^DA rats; assay: Experimental allergic encephalomyelitis (EAE) in vivo; parameters: species or system Rat (Rattus norvegicus); conditions: 200 μL injected at the base of the tail at day 0; scored 40 days; p<0.01 vs untreated control
# Protocol: At day 0, all rats were treated (immunized) with 200 μL SCH (DA.Ncf1^DA spinal cord homogenate, to induce EAE) i.d. at the base of the tail. The rats were then scored according to the following scale for 40 days: • 0=Normal • 1=Tail weakness • 2=Tail paralysis • 3=Tail paralysis and mild […] • 4=Tail paralysis and severe […] • 5=Tail paralysis and paralysis of one limb • 6=Tail paralysis and paralysis of a pair of limbs • 7=Tetra-paresis • 8=Pre-morbid or dead. […] EAE began to appear around day 6.
# [10] = Biodistribution of 3H-labelled phytol; type: in vivo, Rat (Rattus norvegicus)
# Protocol: DA rats originating from Harlan Netherlands (N=4 rats per group) injected with compound 1 (phytol) mixed with radiolabelled compound 1 (phytol) (Moravek Biochemicals, CA) to a total volume of […] at 167 μCi/rat with ^3H-Phytol. At sacrifice at day 2, 4, 8, 11 and 17, respectively, inguinal lymph nodes, spleen, heart, thymus, kidney, liver, lung, adipose tissue, muscle, injection site tissue and blood were collected in equal amount of saline solution in pre-weight tubes (blood with heparin to prevent coagulation). The tissues were homogenized and mixed with ready-safe scintillation liquid (Beckman Coulter, CA). Biodistribution was estimated as relative CPM per gram tissue.
# [11] = test system: DA.Ncf1^DA rats; assay: Pristane induced arthritis (PIA) in DA.Ncf1^DA rats; type: in vivo, Rat (Rattus norvegicus)
# [12] = relative CPM per gram tissue, day 2, 4, 8, 11, 17
compound,measurement,setting,value
"C/C(=C\CO)CCCC(C)CCCC(C)CCCC(C)C (stereo not drawn) [compound 1, 3,7,11,15-Tetramethyl-2-hexadecen-1-ol]",arthritis severity in NOCIA,[1]; 200 μl s.c. five days prior to induction,reduces arthritis severity
same,Delayed type hypersensitivity (DTH) response (increase in ear volume),[1]; CII challenge in the ear day 67 after NOCIA immunization,abrogated
same,severity of arthritis in rats with a functional oxidative burst,[2],arthritis ameliorating effect
same,Oxidative burst / NADPH oxidase capacity in vivo,[3],restores to NADPH oxidase capacity to a level comparable to the level of NADPH oxidase capacity in rats with a functional oxidative burst
same,Oxidative burst / NADPH oxidase capacity in vivo,[3]; listed as Phytol,restores the oxidative burst defect in vivo
same,"severity of PIA, therapeutic effect",[4],therapeutic effects
same,"severity of PIA, oral administration in food 500 mg/kg/day",[4],reduced the severity of arthritis
same,"severity of PIA, oral administration in food 1% daily",[4],reducing the severity of arthritis
same,"adverse effect of the high doses (macroscopic observation, postmortem dissection)","[4]; oral gavage every second day, both doses",No adverse effect
same,"severity of PIA, oral administration in food, three regimes","[4]; phytol 1% daily, 1% every 2'nd day, or 1% initiated day 7 after arthritis induction",reduced the severity of arthritis
same,"severity of PIA, preventive, Lewis.IF rat",[5],arthritis preventing effect
same,anti-CII antibody (IgG) levels in serum,[6]; day 27 after immunization,decreases anti-CII antibody levels in serum
same,severity of collagen-induced arthritis,[6]; s.c. administration (200 μl) 5 days before immunization with CII,prevents collagen-induced arthritis
same,Extra-cellular ROS production (maximal relative luminescence signal),[7],strong ROS production
same,arthritis ameliorating effects,[8],arthritis ameliorating effects
same,arthritogenicity,[8],non arthritogenic
same,severity of inflammatory and paralyzing symptoms of EAE (score 0-8),[9],significant difference in severity of inflammatory and paralyzing symptoms of EAE
same,fraction remaining as a depot in the injection site,"[10]; DA rats, 3H-Phytol injection",> 90%
same,cellular localisation of staining in lymph nodes,"[10]; rat, in vivo","in-between cells or in the cell membrane, i.e. not intracellular"
same,distribution within the draining lymph nodes,"[10]; rat, in vivo",distributed primarily to the cortical regions as well as close to the sinusoidal space of the draining lymph nodes
same,primary tissue for accumulation,[10]; [12],draining lymph nodes were the primary tissue for accumulation
same,time course of distribution to the inguinal lymph nodes,[10]; [12],highest accumulation more than one week after injection and showed a decrease after two weeks
same,"severity of PIA, oral gavage","[11]; both doses, every second day (1.6 and 3.2 mg/kg as printed elsewhere in the source)",potent arthritis ameliorating effect
same,"severity of arthritis, chronic phase of PIA","[11]; injected i.p. twice (200 μl) starting day 70, three days between treatments",decreases arthritis severity in the chronic phase of arthritis
same,"severity of PIA (arthritis score), preventive",[11]; injected s.c. day -5 prior to pristane injection,inhibits development of arthritis
same,cartilage destruction (serum COMP levels),"[11]; sera taken day 38, treatment from day 22",Cartilage destruction is decreased
same,"severity of arthritis, acute phase of established PIA","[11]; two injections (200 μl, s.c. or i.p.) with 5 days in between starting day 22",ameliorates disease in the acute phase of arthritis
"CC(C)=CCC/C(C)=C/CC/C(C)=C/CO [compound 2, 3,7,11-Trimethyl-2,6,10-dodecatrien-1-ol]","severity of PIA, therapeutic effect",[4],therapeutic effect
same,Extra-cellular ROS production (maximal relative luminescence signal),[7],strong ROS production
same,arthritis ameliorating effects,[8],arthritis ameliorating effects
same,arthritogenicity,[8],non arthritogenic
"CC(C)=CCC/C(C)=C/CC/C(C)=C/CC/C(C)=C/CO [compound 3, 3,7,11,15-Tetramethyl-hexada-2,6,10,14-tetraen-1-ol]",Extra-cellular ROS production (maximal relative luminescence signal),[7],strong ROS production
same,arthritis ameliorating effects,[8],arthritis ameliorating effects
same,arthritogenicity,[8],non arthritogenic
"CC(=O)OC/C=C(\C)CC/C=C(\C)CCC=C(C)C [compound 4, Acetic acid 3,7,11-trimethyl-dodeca-2,6,10-trienyl ester]","severity of PIA, therapeutic effect",[4],therapeutic effect comparable to the therapeutic effect of the un-derivatized compound 2
"CC(=O)OC/C=C(\C)CCCC(C)CCCC(C)CCCC(C)C (stereo not drawn) [compound 5, Acetic acid 3,7,11,15-tetra-metyl-hexadec-2-enyl-ester]","severity of PIA, therapeutic effect",[4],therapeutic effect comparable to the therapeutic effect of the un-derivatized compound 1; also recorded: therapeutic effects
same,"severity of PIA, oral administration in food 1% daily",[4],equally effective as oral treatment with compound 1 (phytol) in reducing the severity of arthritis
"CC(C)CCCC(C)CCCC(C)CCCC(C)CCO (stereo not drawn) [compound 6, 3,7,11,15-Tetramethyl-hexadecan-1-ol]","severity of PIA, therapeutic effect",[4],therapeutic effect comparable to the therapeutic effects of compound 1 and compound 5
"CC(=O)OCCC(C)CCCC(C)CCCC(C)CCCC(C)C (stereo not drawn) [compound 7, Acetic acid 3,7,11,15-tetramethyl-hexadecyl ester]","severity of PIA, therapeutic effect",[4],therapeutic effect comparable to the therapeutic effects of compound 1 and compound 5
"C=CC(C)(O)CCCC(C)CCCC(C)CCCC(C)C (stereo not drawn) [compound 9, 3,7,11,15-Tetramethyl-1-hexadecen-3-ol]","severity of PIA, oral administration in food 500 mg/kg/day",[4],reduced the severity of arthritis
same,Extra-cellular ROS production (maximal relative luminescence signal),[7],strong ROS production
"CC(C)OC(=O)C(C)(C)Oc1ccc(C(=O)c2ccc(Cl)cc2)cc1 [fenofibrate, propan-2-yl 2-[4-(4-chlorobenzoyl)phenoxy]-2-methyl-propanoate, reference compound]","severity of PIA, oral fenofibrate 100 mg/kg/day",[4]; 100 mg/kg/day,no effect on the severity of arthritis
